The target in test [1] is T1, Porcine Pancreas Lipase (PPL) (Sus scrofa, UniProt P00591).
T1 sequence (P00591 1-450): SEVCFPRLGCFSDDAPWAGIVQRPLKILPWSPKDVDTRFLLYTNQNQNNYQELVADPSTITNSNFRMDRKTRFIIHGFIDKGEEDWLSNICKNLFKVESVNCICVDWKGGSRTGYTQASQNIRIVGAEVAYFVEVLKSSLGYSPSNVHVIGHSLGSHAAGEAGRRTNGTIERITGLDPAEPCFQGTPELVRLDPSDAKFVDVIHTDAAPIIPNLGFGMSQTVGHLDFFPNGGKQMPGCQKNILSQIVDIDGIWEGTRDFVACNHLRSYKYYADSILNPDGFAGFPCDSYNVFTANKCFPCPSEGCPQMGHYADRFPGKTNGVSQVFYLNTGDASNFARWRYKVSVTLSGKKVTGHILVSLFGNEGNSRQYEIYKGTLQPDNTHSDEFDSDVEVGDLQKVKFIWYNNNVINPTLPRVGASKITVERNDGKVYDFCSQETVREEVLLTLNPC
The test is described as follows: Inhibition of lipase activity assay in vitro. Format: biochemical. The settings on record: for inhibition at 6.25 µg/mL / inhibition at 12.5 µg/mL / inhibition at 25 µg/mL / inhibition at 50 µg/mL / inhibition at 100 µg/mL / inhibition at 200 µg/mL: read-out: Inhibition Percentage (%).

Test [2] concerns gastrointestinal and pancreatic lipases. The note with it: ref Guercioloni, 1997; Bellinger and Peikin, 2002; Othman et al., 2021; cited from earlier work.

pIC50: −log10 of the molar value.

The term pIC50 denotes −log10 of the IC50, conventionally taken in molar units. By inhibition is commonly meant the share of the control response that was lost under treatment.

Turning to `O=C(/C=C/c1ccc(O)c(O)c1)O[C@@H]1C[C@](O)(C(=O)O)C[C@@H](O)[C@H]1O` [Compound 3, Chlorogenic acid], in test [1], the pIC50 is 4.47, the inhibition at 6.25 µg/mL came out at 29.4%, the inhibition at 12.5 µg/mL is 59.2% and the inhibition at 25 µg/mL was found to be 64.2%. Further, in test [1], the inhibition at 50 µg/mL is 77.6%, the inhibition at 100 µg/mL amounted to 86.7% and the inhibition at 200 µg/mL amounted to 89.6%.

On to `Cn1c(=O)c2c(ncn2C)n(C)c1=O` [Compound 2, caffeine], for which, in test [1], the pIC50 was 4.10, the inhibition at 6.25 µg/mL was 34%, the inhibition at 12.5 µg/mL stood at 38.6% and the inhibition at 25 µg/mL turned out to be 64.6%. In test [1], the inhibition at 50 µg/mL was found to be 76.2%, the inhibition at 100 µg/mL came to 81.4% and the inhibition at 200 µg/mL stood at 83.9%.

As to `CCCCCCCCCCC[C@@H](C[C@@H]1OC(=O)[C@H]1CCCCCC)OC(=O)[C@H](CC(C)C)NC=O` [Orlistat], the “prevention of absorption of dietary fat” value in test [2] is recorded as “approximately 30%”. For the same compound, in test [1], the inhibition at 6.25 µg/mL came to 50.6%, the inhibition at 12.5 µg/mL came out at 52.4%, the inhibition at 25 µg/mL was 55.6% and the inhibition at 50 µg/mL turned out to be 77.3%. For the same compound, in test [1], the inhibition at 100 µg/mL came out at 89.4% and the inhibition at 200 µg/mL was determined as 93.3%.

(Values after publication PMC8350192 (Heliyon, 2021).)
